Test results from patent US20140113958A1, “HCV Combination Therapy” (priority 2011, published 2014).
pEC50: −log10 of the molar value. Values joined by “and” are separate entries in the source; they are usually repeats but may differ in a detail not shown here. Equal values may be shown once. “Also recorded” adds a separate entry of the source. Read-outs that look alike come from different tables or passages of the source.

Legend:
Format in all cases: cell-based
[1] = system: HCV genotype Ib replicon (I389luc-ubi-neo/NS3-3′/ET) in Huh-luc/neo-ET cells; conditions: for Efficacy, Antagonism vol / Interaction: second drug in combination with miravirsen (SPC3649); for Efficacy, Antagonism vol: 95% confidence interval, median (≧3 experiments) or individual values; for Interaction: overall
Description: The anti-viral efficacy and cellular toxicity of non-transfected antimiR oligonucleotide in combination with approved and experimental anti-HCV therapeutics (e.g. NM283, 2′-C-methylcytidine, and/or VX-222) (or other NS5B polymerase inhibitors) was determined in the reporter cell line Huh-luc/neo-ET. This cell line harbors the persistently replicating I389luc-ubi-neo/NS3-3′/ET replicon containing the firefly luciferase gene-ubiquitin-neomycin phosphotransferase fusion protein and EMCV IRES driven NS3-5B HCV coding sequences containing the ET tissue culture adaptive mutations (E1202G, T1208I, and K1846T). Eight dilutions of non-transfected antimiR oligonucleotide (bracketing the calculated EC50) were evaluated in triplicate on duplicate sets of three plates with five dilutions of each of the control compounds (bracketing the calculated EC50). One set of plates was used for the determination of cellular toxicity and the other set of plates was used for the determination of anti-viral efficacy. The efficacy and toxicity results was quantified with firefly luciferase activity and XTT dye reduction, respectively, and the results of the assay is imported into the Prichard and Shipman MacSynergy II software program. The MacSynery II analysis includes calculation of the dose response of the two (or more) compounds when used alone followed by calculation of the expected additive level of antiviral inhibition or toxicity when the compounds are used together based on the individual dose response curves. The expected level of activity at each of the concentration data points was compared to the experimentally determined antiviral activity in the assay. The expected activity was subtracted from the realized activity, yielding a negative, zero or positive value. These values are plotted as a three dimensional representation of the data and the result is reported as a two-factor value, expressing the combined average above the expected level of activity (synergy volume) and the combined average below the expected level of activity (antagonism volume). Combination analysis was performed two or more times for each pair of test compound and control substance.
The reporter cell line Huh-luc/neo-ET was obtained from Dr. Ralf Bartenschlager (Department of Molecular Virology, Hygiene Institute, University of Heidelberg, Germany) by ImQuest BioSciences. This cell line harbors the persistently replicating 1389luc-ubi-neo/NS3-3′IET replicon containing the firefly luciferase gene-ubiquitinneomycin phosphotransferase fusion protein and EMCV IRES driven NS3-5B HCV coding sequences containing the ET tissue culture adaptive mutations (E 1202G, T12081, and KI846T). A stock culture of the Huh-luc/neo-ET was expanded by culture in DMEM supplemented with 10% FBS, 2 mM glutamine, penicillin (100 IU/mL)/streptomycin (100 f·Ig/mL) and IX nonessential amino acids plus I mg/ml G418. Prior to plating, the cells were split 1:4 and cultured for two passages in the same medium plus 250 f·Ig/mL G418. The cells were treated with trypsin and enumerated by staining with trypan blue and seeded into 96-well tissue culture plates at a cell culture density 5.0×10^3 cells per well in a volume of 85 f·IL per well and incubated at […] in an environment of 5% CO2 for 24 hours. Six plates were established for the determination of combination efficacy (EC50) and cytotoxicity (TC50) for each of the compound combinations (three plates each for efficacy and toxicity). Following the 24 hour incubation, eight 2-fold serial dilutions of SPC3649 in cell culture medium without G418 were prepared (final in well high test concentration of 1.20 μM to 2.40 μM) and added to the cells and five 2-fold or 5-fold serial dilutions of control compounds in cell culture medium without G418 were prepared and added to the cells.

[2] = system: HCV genotype 1b replicon NS3 R155K; conditions: EC50 mutant / EC50 wild-type, mean of two experiments (individual values)
Description: The in vitro antiviral of miravirsen was evaluated against wild-type HCV genotype 1b replicon and HCV genotype 1b replicons constructed to contain key amino acid substitutions in NS3 protease (A156T, R155K), NS5B polymerase (S282T, M423I) and NS5A protein (Y93H) in transient transfection assays utilizing Huh 7 cells. […] Huh 7 cells were transfected with either the wild-type or the mutant RNA constructs by electroporation. Luciferase activity was measured 72 hours after compound treatment and EC50 values determined from dose-response curves. Fold resistance was expressed as the ratio of the EC50 for mutant HCV replicon to the EC50 for wild-type HCV replicon.
The in vitro antiviral of miravirsen was evaluated against wild-type HCV genotype 1b replicon and HCV replicons constructed to contain key amino acid substitutions in NS3 protease (A156T, R155K), NS5B polymerase (S282T, M423I) and NS5A protein (Y93H) in transient transfection assays. […] Huh 7 cells were transfected with either the wild type or the mutant RNA constructs by electroporation. Luciferase activity was measured 72 hours after compound treatment and EC50 values determined from dose-response curves. Fold resistance was expressed as the ratio of the EC50 for mutant HCV replicon to the EC50 for wild-type HCV replicon. Results are expressed as the mean of two individual experiments. In an initial set of experiments, the standard protocol was modified by adding compounds 24 hours after electroporation. […] In a third experiment cells were pretreated with miravirsen for 24 hours before electroporation with wild-type RNA constructs to determine if preincubation could result in increased miravirsen antiviral activity.

[3] = system: Huh-luc/neo-ET HCV genotype Ib replicon cells; conditions: for rate of cell expansion / resistant clonal populations: selection with G418, 28 days; for resistant clonal populations: crystal violet
Description: Cell culture and Assay setup: The reporter cell line Huh-luc/neo-ET was obtained and prepare as described previously. Cells were plated into 10 cm tissue culture dishes at a density of 3×10^5 cells per plate in culture medium containing 250 μg/ml G418 and incubated for 24 hours at 37° C. in an environment of 5% C02. Following the 24 hour incubation, dilutions of SPC3649, SPC4729, or telaprevir were prepared in cell culture medium (as above) with 750 μg/ml G418. Each of the dilutions was added to duplicate plates and the plates were incubated at 37° C. in an environment of 5% CO^2. Two additional plates received cell culture medium with 750 μg/ml G418 as a no-treatment control. […] The final concentration of SPC4729 was 10.0 μM. […] Following 28 days of passage, one set of dishes was stained with crystal violet and the other set of plates was utilized for expansion and establishment of resistant cell culture stocks.
Huh-luc/neo-ET HCY genotype Ib replicon cells were cultured under selective pressure in the presence of 750 μg/mL G4 I8 with and without four independent fixed concentrations of SPC3649 anti-miR oligonucleotide, or telaprevir, or one concentration of scrambled oligonucleotide SPC4729 for 28 days in tissue culture plates. Duplicate tissue culture dishes were established and maintained for each culture condition. Medium was replaced bi-weekly during the 28 days of culture and the cells were split at the time of medium replenishment to maintain a confluent cell culture monolayer. Following four weeks in culture, cells were either fixed with methanol and stained with crystal violet or expanded for subsequent phenotypic and genotypic characterization.

For “5′-^mCs^ocsAs^otstsGs^oTs^ocsas^mCs^oas^mCs^ots^mCs^omC^o-3′ (CCATTGTCACACTCC; all phosphorothioate, sugars by position and methylation of C not given here; further chemistry not fully specified) [miravirsen]”, which overall antiviral interaction ([1]; in combination with ribavirin) is on record?
The overall antiviral interaction was “apparent synergy”.

And the pEC50 ([1]; previously reported against stable HCV cell lines, read-out: average EC50)?
The pEC50 was 6.17.

What about the pEC50 ([1]; read-out: EC50 (+/− SD)) of the same compound?
Its pEC50 is 6.17.

And the “fold change in susceptibility, NS3 R155K” value [2]?
Its value is 1.2 (1.9, 0.4) fold.

What about the “rate of cell expansion” value [3] of the same compound?
Its value is “decrease in the rate of cell expansion”.

What about the resistant clonal populations ([3]; listed as SPC3649) of the same compound?
The resistant clonal populations was “failed to produce distinct individual resistant clonal populations; also recorded: distinct individual resistant clonal populations were not produced”.

For CCC[C@H](NC(=O)[C@@H]1[C@H]2CCC[C@H]2CN1C(=O)[C@@H](NC(=O)[C@@H](NC(=O)c1cnccn1)C1CCCCC1)C(C)(C)C)C(=O)C(=O)NC1CC1 [Telaprevir, (1S,3aR,6aS)-2-[(2S)-2-[[(2S)-2-Cyclohexyl-2-(pyrazine-2-carbonylamino)acetyl]amino]-3,3-dimethylbutanoyl]-N-[(3S)-1-(cyclopropylamino)-1,2-dioxohexan-3-yl]-3,3a,4,5,6,6a-hexahydro-1H-cyclopenta[c]pyrrole-1-carboxamide], which overall antiviral interaction ([1]; in combination with ribavirin) is on record?
Its overall antiviral interaction is “inconclusive”.

What about the “Efficacy, Antag Vol” value ([1]; in combination with ribavirin, 95% confidence level, individual values) of the same compound?
Its value is 0.00/−200.2 μM^2% and 37.5/−22.6; μM^2%.

What about the “Efficacy, Antagonism vol” value [1] of the same compound?
Its value is 0/−3.2 μM^2%.

What about the “Efficacy, Antagonism vol” value ([1]; listed as telaprevir) of the same compound?
Its value is −3.22 μM^2%.

What about the Interaction [1] of the same compound?
The Interaction was “Positive”.

What about the Interaction ([1]; listed as telaprevir) of the same compound?
Its Interaction is “positive interaction”.

And the “fold change in susceptibility, NS3 R155K” value [2]?
The value was 4.6 (5.0, 4.2) fold.

And the “fold change in susceptibility, NS3 R155K” value ([2]; listed as telaprevir)?
The value was 4.6 fold.

And the Cell split ratio ([3]; 1.50 μM plus G418, day 15)?
Its Cell split ratio is “N.S”.

What about the Cell split ratio ([3]; 1.50 μM plus G418, day 22) of the same compound?
Its Cell split ratio is “N.S”.

What about the Cell split ratio ([3]; 3.00 μM plus G418, day 15) of the same compound?
The Cell split ratio was “N.S”.

What about the Cell split ratio ([3]; 3.00 μM plus G418, day 18) of the same compound?
The Cell split ratio was “N.S”.

And the Cell split ratio ([3]; 3.00 μM plus G418, day 22)?
The Cell split ratio was “N.S”.

And the Cell split ratio ([3]; 3.00 μM plus G418, day 25)?
Its Cell split ratio is “N.S”.

And the Cell split ratio ([3]; 6.00 μM plus G418, day 11)?
The Cell split ratio was “N.S”.

What about the Cell split ratio ([3]; 6.00 μM plus G418, day 15) of the same compound?
Its Cell split ratio is “N.S”.

And the Cell split ratio ([3]; 6.00 μM plus G418, day 18)?
Its Cell split ratio is “N.S”.

And the Cell split ratio ([3]; 6.00 μM plus G418, day 22)?
Its Cell split ratio is “N.S”.

And the Cell split ratio ([3]; 6.00 μM plus G418, day 25)?
The Cell split ratio was “N.S”.

And the “rate of cell expansion” value [3]?
The value was “dose-dependent decrease in the rate of cell expansion”.

And the resistant clonal populations [3]?
Its resistant clonal populations is “production of distinct individual resistant clonal populations”.
